Structures can show the parent of a compound that is named as a salt. Where two headings read alike, the source gives them in different places.
Legend:
[1] = test system: 16610D9 thymocyte cells; assay: Western analysis of treated cells with anti-fluorescein antibody; format: cell-based, mouse; conditions: conjugates 25 μM; anisomycin 250 ng/mL
Method: Live cell number was determined using trypan blue exclusion dye and each sample was adjusted to contain an equal number of live cells. Cell pellets were resuspended in 2× lysis buffer (100 mM β-glycerophosphate, 3 mM EGTA, 2 mM EDTA, 0.2 mM sodium-orthovanadate, 2 mM DTT, 20 μg/ml aprotinin, 20 μg/ml leupeptin, 50 μg/ml trypsin inhibitor, and 4 μg/ml pepstatin, and 1% Triton X-100) and incubated on ice for 30 min. Cell debris was removed by centrifugation at 20,000×g for 30 min. Cell lysate was combined with SDS loading buffer (0.12 M Tris-Cl (pH 6.8), 20% glycerol, 4% (w/v) SDS, 2% (v/v) β-mercaptoethanol, and 0.001% bromophenol blue) and heated at 90° C. for 10 min. Samples were applied entirely to a 4% stacking portion of a 10% glycine-SDS-polyacrylamide gel (30 mA for 1 h, 30 min). Protein was transferred using standard Western transfer techniques and the blot was probed with an anti-fluorescein antibody followed by an anti-rabbit-horseradish peroxidase conjugate (Pierce chemicals). The chemiluminescence reaction was carried out using the ECL PLUS Western Blotting […] System (Amersham BioSciences).
Action of puromycin and the conjugates should result in proteins bearing these compounds at their C-terminus in vivo. Western blot analysis of cellular lysates was chosen to examine if incorporation occurred in vivo and compare the resulting signal with the control conjugates. […]

[2] = test system: dopamine D1/D5 receptor; assay: GFP protein synthesis reporter imaging in cultured hippocampal neurons; format: cell-based, rat; conditions: co-application with SKF
Method: Dissociated hippocampal neurons were prepared and maintained as previously described [34]. Briefly, hippocampi from postnatal day 2 Sprague-Dawley rat pups were enzymatically and mechanically dissociated and plated into poly-lysine coated glass-bottom petri dishes (Mattek). Neurons were maintained for 14-21 days at 37° C. in growth medium (Neurobasal A supplemented with B27 and Glutamax-1, Invitrogen).
All images were acquired with an Olympus IX-70 confocal laser scanning microscope running Fluoview software (Olympus America, Inc). GFP, Alexa 488, and F2P were excited with the 488 nm line of an argon ion laser, and emitted light was collected between 510 and 550 nm. Alexa 568 was excited with the 568 nm line of a krypton ion laser, and emitted light was collected above 600 nm. […] To facilitate the analysis of fluorescence signal as a function of distance from the soma, dendrites were linearized and extracted from the full-frame image using a modified version of the Straighten plugin for ImageJ.
Dendrites were analyzed for time-lapse as follows: fluorescence was averaged across the width of linearized dendrites, generating a vector of mean pixel intensities equal to the length of the dendrite, ΔF/F (Ftn-Ft0/Ft0) was then computed at each pixel along the dendritic length. […]

[3] = test system: cultured hippocampal neurons; assay: F2P (fluorescein-dC-puromycin) reporter of endogenous protein synthesis in cultured hippocampal neurons; format: cell-based, rat; conditions: for effect of co-application on basal F2P fluorescence in dendrites: co-application with F2P
Method: Dissociated hippocampal neurons were prepared and maintained as previously described. Briefly, hippocampi from postnatal day 2 Sprague-Dawley rat pups were enzymatically and mechanically dissociated and plated into poly-lysine coated glass-bottom petri dishes (Mattek). Neurons were maintained for 14-21 days at 37° C. in growth medium (Neurobasal A supplemented with B27 and Glutamax-1, Invitrogen).
All images were acquired with an Olympus IX-70 confocal laser scanning microscope running Fluoview software (Olympus America, Inc). GFP, Alexa 488, and F2P were excited with the 488 nm line of an argon ion laser, and emitted light was collected between 510 and 550 nm. Alexa 568 was excited with the 568 nm line of a krypton ion laser, and emitted light was collected above 600 nm. In experiments where two channels were acquired simultaneously, settings were chosen to ensure no signal bleed-through between channels. For between-dish comparisons on a given day, all images were acquired at the same settings, without knowledge of the experimental condition during image acquisition. All post-acquisition processing and analysis was carried out with ImageJ (NIH) and Matlab (The MathWorks, Inc.). To facilitate the analysis of fluorescence signal as a function of distance from the soma, dendrites were linearized and extracted from the full-frame image using a modified version of the Straighten plugin for ImageJ.
To determine whether D1/D5 receptors activate the translation of endogenous mRNAs in living neurons, fluorescein-dC-puromycin (F2P), a novel protein synthesis reporter based on the peptidyl transferase inhibitor puromycin [35] was used. Because puromycin is a structural analog of an amino-acyl tRNA molecule, it enters ribosomes actively engaged in translation where it becomes covalently attached to the carboxy-terminus of nascent proteins through a peptide linkage. Initially, whether F2P can serve as a protein synthesis reporter in cultured hippocampal neurons was examined (FIGS. 11A, B). […] (FIG. 11B).

[4] = test system: D1/D5 receptors; assay: Miniature excitatory postsynaptic currents (mEPSCs) in cultured hippocampal neurons; format: cell-based, rat; conditions: anisomycin with DHX; PKI6-22 in the recording pipette
From the text: Given the increase in the total and synaptic GluRl population, the effects of dopamine agonists on synaptic transmission was examined. To monitor synaptic strength before and after exposure to a dopamine agonist, miniature excitatory postsynaptic currents (mEPSCs) in cultured hippocampal neurons were examined.

[5] = test system: 16610D9 cells infected with MIG; assay: Killing of MIG-infected (no PAC resistance) cells, flow cytometry; format: cell-based, mouse; conditions: long exposure, 48 h incubation
Method: (§1) The PAC gene was cloned into MIG using BgII and EcoRI restriction sites to yield MIGPAC. 293T-HEK fibroblasts (American Tissue Culture Collection) were co-transfected with pECL-Eco [30] and MIG or MIGPAC by calcium phosphate precipitation. After 12 hours, the precipitate was removed, cells were washed once with PBS, and 4 mL of fresh complete Dulbecco's Modified Eagle Medium (DMEM) supplemented with 10% fetal calf serum (FCS). Viral supernatant was removed 24 hours later and used in infection of 16610D9 cells. One million D9 cells were spin-infected with 0.4 mL of viral supernatant suplemented with 5 μg/ml Polybrene (Sigma-Aldrich).
(§2) 16610D9 cells infected with either MIG of MIGPAC were cultured in RPMI media with 10% FBS and grown at […] in a humidified atmosphere with 5% CO2. For each experiment, 16610D9 cells (0.25×10^6/well) were added to 24-well microtiter plates along with puromycin, puromycin-conjugate, and control molecules dissolved in the minimum amount of either media or PBS. After a 48 h incubation, the cells were washed twice in 2 mL PBS+4% FCS and resuspended in PBS+4% FCS supplemented with 2% formaldehyde along with incubation at 37° C. for 10 min. […]
(§3) Foreign genes can be inserted into D9 cells by infection with a viral vector (see Experimental Procedures). […] MIG expresses GFP so that infection efficiency can be monitored by GFP fluorescence (FIG. 7A). […]

[6] = test system: 16610D9 cells infected with MIGPAC; assay: Enrichment of GFP(+) MIGPAC-infected (PAC-expressing) cells, flow cytometry; format: cell-based, mouse; conditions: 48 h; 4.3% GFP-positive before treatment
Method: as §1, §2, §3

[7] = test system: globin translation; conditions: previously shown, ref [14]; read-out: IC50 (in vitro translation inhibition) from reference [14]; cited from earlier work
[8] = test system: 16610D9 thymocyte cells; assay: Detection of protein synthesis events in live cells by flow cytometry (fluorescence labeling); format: cell-based
Method: 16610D9 cells (0.5 million mL^−1) were combined with the various puromycin conjugates and control molecules resuspended in the minimum volume of PBS or media as described above. After a 24 h incubation, the cells were washed twice in 2 mL PBS+4% FCS and resuspended in PBS+4% FCS supplemented with 2% formaldehyde followed by incubation at 37° C. for 10 min or used directly after washing for immediate flow cytometry analysis.
In order to analyze the activity of puromycin conjugates in vivo, choosing of both an appropriate cell line and an appropriate quantitation and detection scheme was needed. While microscopy is a powerful means to analyze individual cells and small sections of tissue, performance of experiments where thousands to millions of cells could be examined for protein labeling was desired. Therefore, flow cytometry was chosen as the primary means to analyze uptake and incorporation of the conjugates. In addition to providing a quantitative measure of fluorescence and cell size, flow cytometry methods enable live cells and dead cells to be readily distinguished.

[9] = test system: globin translation; assay: In vitro potency determination: inhibition of globin mRNA translation in rabbit reticulocyte lysate; format: biochemical; conditions: read-out: IC50: concentration of puromycin conjugate required for 50% inhibition of globin translation, 30° C. 60 min, standard error <5% in replicates
Method: Translation reactions containing [^35S]Met were mixed in batch on ice and added in aliquots to microcentrifuge tubes containing an appropriate amount of puromycin conjugate (or control molecule) dried in vacuo. […] Inhibitor, lysate preparation (including all components except template), and globin mRNA were mixed simultaneously and incubated at 30° C. for 60 min. Each reaction (2 μL) was combined with 8 μL of tricine loading buffer (80 mM Tris-Cl (pH 6.8), 200 mM DTT, 24% (v/v) glycerol, 8% sodium dodecyl sulfate (SDS), and 0.02% (w/v) Coomassie blue G-250), heated to 90° C. for 5 min, and applied entirely to a 4% stacking portion of a 15% tricine-SDS-polyacrylamide gel containing 20% (v/v) glycerol [29] (30 mA for 1 h, 30 min). Gels were fixed in 10% acetic acid (v/v) and 50% (v/v) methanol, dried, exposed overnight on a Phosphorlmager screen, and analyzed using a Storm Phosphorlmager (Molecular Dynamics).
Initial analysis began by examining the activity of each of the conjugates in vitro for their ability to inhibit protein translation.

[10] = 24 h incubation, conjugates at 50 μM, live-cell gate

## COc1ccc(C[C@H]2NC[C@H](O)[C@H]2OC(C)=O)cc1 [anisomycin]
[1]
  incorporation into cellular protein (anti-fluorescein Western signal): essentially no signal
[2]
  effect of co-application on the effects of SKF on GFP signal: completely prevented
[3]
  effect of co-application on basal F2P fluorescence in dendrites: significantly attenuated
[3]; preincubation and perfusion with anisomycin, p<0.01
  effect on DHX-produced enhancement of F2P incorporation: completely blocked
[4]
  effect on DHX-induced increase in mEPSC frequency: completely prevented

## COc1ccc(C[C@H](N)C(=O)N[C@H]2[C@@H](O)[C@H](n3cnc4c(N(C)C)ncnc43)O[C@@H]2CO)cc1 [puromycin, L-Puromycin hydrochloride]
[5]
  effect on MIG infected cells (killing): almost complete killing of both GFP-positive and GFP-negative cells
[6]
  GFP-positive cells in population after treatment: 94%
[3]
  effect of co-application on basal F2P fluorescence in dendrites: significantly attenuated

## biotin-puromycin
[7]
  IC50: 54 µM

## Fluorescein-puromycin [FP]
[8]; [10]
  rank order of fluorescence enhancement: DMT-F2P-Me (12)>FB2P (1)˜BF2P (8)>F2P (4)˜F2P-Me (10)>FP
  relative level of fluorescence enhancement: small fluorescence enhancement
[7]
  IC50: 120 µM

## Oc1cc2c(cc1O)[C@H]1c3ccccc3CN[C@@H]1CC2 (racemic) [DHX, dihydrexidine]
[3]; perfused 15 minutes on dendritic segment, p<0.05, n=8 dendrites
  F2P incorporation in locally perfused dendrites compared to control dendrites: significantly greater F2P incorporation

## fluorescein-dC-puromycin [F2P]
[9]
  IC50: 22 µM
[8]; 5 μM and 25 μM, live cell population
  enhanced fluorescence relative to the F2A control molecule: up to 4 fold
[8]; 5 μM and 25 μM, F2P statement for 48 hours incubation
  effect on cell viability: kills the majority of cells
[8]; [10]
  rank order of fluorescence enhancement: DMT-F2P-Me (12)>FB2P (1)˜BF2P (8)>F2P (4)˜F2P-Me (10)>FP
[3]; brief (˜15 min) bath application
  F2P reporter fluorescence in neurons: fluorescence detected in both the cell body and the dendrites

## biotin-dC-puromycin
[7]
  IC50: 11 µM

— US20060057069A1, “Detection of protein expression in vivo using fluorescent puromycin conjugates” (CALIFORNIA INSTITUTE OF TECHNOLOGY, priority 2004, published 2006)
